Test results from patent publication US6979560B1, “Eschericha bacteria overexpressing the yahn gene for feedback-insensitive amino acid production” (priority 1998, dated 2005).
Converted amounts (≈) assume the structure as drawn. Like-named read-outs stand apart in the source and are kept apart here.

Legend:
Format in all cases: cell-based
E. coli TG1/pUC21 = test: MIC of amino acids and analogues on M9 agar, control strain TG1/pUC21; conditions: for MIC: Escherichia coli
Protocol: (§1) Therefore, the effect of the pYEAS, pYAHN, PYFIK, and pYGGA plasmids on susceptibility of the strain TG1 to some amino acids and amino acid analogues was tested. Overnight cultures of the E. coli strains TG1/pYEAS, TG1/pYAHN, TG1/pYFIK, TG1/pYGGA and of the control strains TG1/pUC21, TG1/pUC19 and TG1/pOK12 grown in M9 minimal medium with an appropriate antibiotic on a rotary shaker (10^9 cfu/ml) were diluted 1:100 in M9 minimal medium and grown for 5 h in the same medium. Then the log phase cultures thus obtained were diluted and about 10^4 alive cells were applied to well-dried test plates with M9 agar containing doubling increments of amino acids or analogues. Thus the minimum inhibition concentration (MIC) of these compounds were examined.

E. coli TG1/pYAHN = test: microbe, parasite or virus in culture; conditions: for MIC: Escherichia coli, TG1/PYAHN, read-out: MIC (μg/ml) for E. coli TG1, harboring the plasmid pYAHN
From the text: as §1, with “The homology of the yeaS, yfiK, yahN and yggA gene products with the lysine transporter, LysE, of Corynebacterium glutamicum (Vrljic et al., Mol. Microbiol.,22, 815-826, 1996) and RhtB protein involved in homoserine excretion, indicates the analogues function for these proteins. It is well known that the increased expression of the genes involved in antibiotic and heavy metal efflux increases the level of resistance to the drugs (Nikaido, H. J. Bacteriology, 178, 5853-5859, 1996). Therefore,” for “Therefore,”

E. coli TG1/pYGGA = test: microbe, parasite or virus in culture; conditions: for MIC: Escherichia coli, TG1/PYGGA, read-out: MIC (μg/ml) for E. coli TG1, harboring the plasmid pYGGA
From the text: as §1, with “The homology of the yeaS, yfiK, yahN and yggA gene products with the lysine transporter, LysE, of Corynebacterium glutamicum (Vrljic et al., Mol. Microbiol.,22, 815-826, 1996) and RhtB protein involved in homoserine excretion, indicates the analogues function for these proteins. It is well known that the increased expression of the genes involved in antibiotic and heavy metal efflux increases the level of resistance to the drugs (Nikaido, H. J. Bacteriology, 178, 5853-5859, 1996). Therefore,” for “Therefore,”

E. coli TG1/pYFIK = test: microbe, parasite or virus in culture; conditions: for MIC: Escherichia coli, TG1/PYFIK, read-out: MIC (μg/ml) for E. coli TG1, harboring the plasmid pYFIK
From the text: as §1, with “The homology of the yeaS, yfiK, yahN and yggA gene products with the lysine transporter, LysE, of Corynebacterium glutamicum (Vrljic et al., Mol. Microbiol.,22, 815-826, 1996) and RhtB protein involved in homoserine excretion, indicates the analogues function for these proteins. It is well known that the increased expression of the genes involved in antibiotic and heavy metal efflux increases the level of resistance to the drugs (Nikaido, H. J. Bacteriology, 178, 5853-5859, 1996). Therefore,” for “Therefore,”

E. coli TG1/pYEAS = test: microbe, parasite or virus in culture; conditions: for MIC: Escherichia coli, TG1/PYEAS, read-out: MIC (μg/ml) for E. coli TG1, harboring the plasmid pYEAS
From the text: as §1, with “The homology of the yeaS, yfiK, yahN and yggA gene products with the lysine transporter, LysE, of Corynebacterium glutamicum (Vrljic et al., Mol. Microbiol.,22, 815-826, 1996) and RhtB protein involved in homoserine excretion, indicates the analogues function for these proteins. It is well known that the increased expression of the genes involved in antibiotic and heavy metal efflux increases the level of resistance to the drugs (Nikaido, H. J. Bacteriology, 178, 5853-5859, 1996). Therefore,” for “Therefore,”

[1] = E. coli TG1 harboring pUC21 (control vector), M9 agar, doubling increments, read-out: MIC (μg/ml) for E. coli TG1, harboring the plasmid pUC21

| SMILES | MIC (E. coli TG1/pUC21; [1]) [µg/mL] | MIC (E. coli TG1/pYAHN) [µg/mL] | MIC (E. coli TG1/pYGGA) [µg/mL] | MIC (E. coli TG1/pYFIK) [µg/mL] | MIC (E. coli TG1/pYEAS) [µg/mL] | MIC (μg/ml) for E. coli TG1, harboring the plasmid pUC21 (E. coli TG1/pUC21; E. coli TG1 harboring pUC21 (control vector), M9 agar, doubling increments) [μg/ml] | MIC (μg/ml) for E. coli TG1, harboring the plasmid pYAHN (E. coli TG1/pYAHN; E. coli TG1 harboring pYAHN (multicopy yahN), M9 agar, doubling increments) [μg/ml] | MIC (μg/ml) for E. coli TG1, harboring the plasmid pYGGA (E. coli TG1/pYGGA; E. coli TG1 harboring pYGGA (multicopy yggA), M9 agar, doubling increments) [μg/ml] | MIC (μg/ml) for E. coli TG1, harboring the plasmid pYFIK (E. coli TG1/pYFIK; E. coli TG1 harboring pYFIK (multicopy yfiK), M9 agar, doubling increments) [μg/ml] | MIC (μg/ml) for E. coli TG1, harboring the plasmid pYEAS (E. coli TG1/pYEAS; E. coli TG1 harboring pYEAS (multicopy yeaS), M9 agar, doubling increments) [μg/ml] | MIC (E. coli TG1/pUC21; TG1/PUC21, read-out: MIC (μg/ml) for E. coli TG1, harboring the plasmid pUC21) [µg/mL] |
| --- | --- | --- | --- | --- | --- | --- | --- | --- | --- | --- | --- |
| N=C(N)NCCC[C@H](N)C(=O)O [L-arginine] | 10000 | 10000 (≈ 57.4 mM) | 20000 (≈ 115 mM) | 10000 (≈ 57.4 mM) | 10000 (≈ 57.4 mM) |  |  |  |  |  |  |
| N[C@@H](CCC(=O)O)C(=O)[O-].[Na+] [L-glutamate (Na salt)] |  |  |  |  |  | 5000 | 5000 | 5000 | 10000 | 20000 |  |
| O=C(O)[C@@H]1CCCN1 [L-proline] | 1000 | 2000 (≈ 17.4 mM) | 1000 (≈ 8.69 mM) | 5000 (≈ 43.4 mM) | 2000 (≈ 17.4 mM) |  |  |  |  |  |  |
| CCC(N)C(=O)O (stereo not drawn) [α-aminobutyric acid] | 2500 | 2500 (≈ 24.2 mM) | 2500 (≈ 24.2 mM) | 5000 (≈ 48.5 mM) | > 10000 |  |  |  |  |  |  |
| NCCCC[C@H](N)C(=O)O [L-lysine] |  | 5000 (≈ 34.2 mM) | 15000 (≈ 103 mM) | 7500 (≈ 51.3 mM) | 7500 (≈ 51.3 mM) |  |  |  |  |  | 5000 |
| NCCSC[C@H](N)C(=O)O [AEC, S-(2-aminoethyl)-L-cysteine] | 5 | 5 (≈ 0.0304 mM) | 200 (≈ 1.22 mM) | 10 (≈ 0.0609 mM) | 5 (≈ 0.0304 mM) |  |  |  |  |  |  |
| N[C@@H](Cc1c[nH]cn1)C(=O)O [L-histidine] | 5000 | 5000 (≈ 32.2 mM) | 5000 (≈ 32.2 mM) | 10000 (≈ 64.5 mM) | 30000 (≈ 193 mM) |  |  |  |  |  |  |
| CN(C)CC(N)C(=O)O (racemic) [4-aza-DL-leucine] | 100 | 100 (≈ 0.757 mM) | 100 (≈ 0.757 mM) | 100 (≈ 0.757 mM) | 100 (≈ 0.757 mM) |  |  |  |  |  |  |
| CCC(O)C(N)C(=O)O (stereo not drawn) [AHVA, α-amino-β-hydroxyvaleric-acid] | 100 | 100 (≈ 0.751 mM) | 100 (≈ 0.751 mM) | 200 (≈ 1.5 mM) | 100 (≈ 0.751 mM) |  |  |  |  |  |  |
| CC(C)[C@H](N)C(=O)O [L-valine] | 0.5 | 0.5 (≈ 0.00427 mM) | 0.5 (≈ 0.00427 mM) | 0.5 (≈ 0.00427 mM) | 0.5 (≈ 0.00427 mM) |  |  |  |  |  |  |
| N[C@@H](CCO)C(=O)O [L-homoserine] | 500 | 500 (≈ 4.2 mM) | 500 (≈ 4.2 mM) | 1000 (≈ 8.39 mM) | 1000 (≈ 8.39 mM) |  |  |  |  |  |  |
| C[C@@H](O)[C@H](N)C(=O)O [L-threonine] | 30000 | 30000 (≈ 252 mM) | 30000 (≈ 252 mM) | 40000 (≈ 336 mM) | 50000 (≈ 420 mM) |  |  |  |  |  |  |
